Assay results as given in patent US9353051B2, “Antiviral drugs for treatment or prevention of dengue infection” (Siga Technologies Inc., priority 2007, dated 2016).
Read-outs that look alike come from different tables or passages of the source.

Legend:
Den-3 = test: viral yield assay against Den-3; type: cell-based; details: Dengue virus
Den-4 = test: viral yield assay against Den-4; type: cell-based; details: Dengue virus
[1] = test system: Dengue-2 (Strain New Guinea C); test: viral yield assay against Dengue-2 in Vero cells; type: cell-based; details: Dengue virus; for EC90: read-out: EC90 Yield Den-2
In short: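 Vero cells infected with dengue-2 at MOI 0.1 were treated with compound (DMSO control) at 37° C., harvested 48 h post infection and titered on Vero cells.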

[2] = test system: Bovine Viral Diarrhea Virus (BVDV); test: specificity: activity against BVDV; type: cell-based
Method: (§1) Select compounds were also tested for more broad spectrum activity against other members of the Flaviviridae family including Modoc, which is a murine flavivirus, as well as Bovine Viral Diarrhea Virus (BVDV), which is a Pestivirus. Since dengue virus is able to replicate in multiple cell lines and to ensure that the activity seen in vero cells is consistent, select compounds were also tested for their effective concentration in a viral yield assay against dengue-2 in C6/36 mosquito cells.

Den-1 = test: viral yield assay against Den-1; type: cell-based; details: Dengue virus
Modoc = test: specificity: activity against Modoc; type: cell-based, murine flavivirus; details: Orthoflavivirus, in Mus musculus
Method: as §1

[3] = test system: dengue-2 in C6/36 mosquito cells; test: viral yield assay against dengue-2 in C6/36 mosquito cells; type: cell-based; details: Dengue virus, dengue-2, C6/36 mosquito cells, read-out: Specificity C6/36
Method: as §1

dengue [4] = details: mouse model; cited from earlier work
dengue [5] = details: cited from earlier work
[6] = Vero cells, MOI 0.1, harvested 48 hours post infection, read-out: Activity (anti-dengue 2 viral activity, EC50)
[7] = viral yield assay, Vero cells, read-out: EC50 Yield Den-2
[8] = Bovine viral diarrhea virus isolates and strains, read-out: Specificity BVDV
[9] = Bovine viral diarrhea virus isolates and strains; read-out: Specificity BVDV

Structure (SMILES) | EC50 (Den-3) | EC90 (Den-3) | EC50 (Den-4) | EC90 (Den-4) | EC50 [1, 6] | EC50 [1, 7] | EC90 ([1]; viral yield assay, Vero cells) | EC50 [2, 8] | EC50 (Den-1) | EC90 (Den-1) | EC50 (Modoc) | EC50 [3] | EC50 [2, 9] | EC50 ([1]; Vero, 48 h, read-out: Activity (anti-dengue 2 viral activity, EC50)) | protection against dengue (dengue [4]) | adverse effects induced (dengue [5]; animal models of dengue (mouse or rhesus monkey, not specified)) | protection against dengue (dengue [5]; rhesus monkey model)
CCN(CC)S(=O)(=O)c1ccc(NC(=O)Cn2nnc3ccccc3c2=O)cc1 [Compound 3, N-(4-Diethylsulfamoyl-phenyl)-2-(4-oxo-4H-benzo[d][1,2,3]triazin-3-yl)-acetamide] | 1 µM | 12.1 µM | 2.3 µM | 10 µM | 1 to 10 µM | 4 µM | 10 µM | > 50 µM | 1.3 µM | 5.1 µM | 3.1 µM | – | – | – | – | – | –
CCN(CC)S(=O)(=O)c1ccc(OC)c(NC(=O)Cn2cnc3c2c(=O)n(C)c(=O)n3C)c1 [Compound 13, N-(5-Diethylsulfamoyl-2-methoxy-phenyl)-2-(1,3-dimethyl-2,6-dioxo-1,2,3,6-tetrahydro-purin-7-yl)-acetamide] | 4.1 µM | 9.4 µM | 1.9 µM | 9.2 µM | 1 to 10 µM | 2.4 µM | 10.3 µM | 47.7 µM | 7.1 µM | 8.5 µM | > 25 µM | 2.1 µM | – | – | – | – | –
CC(C)N(C)S(=O)(=O)c1ccc(NC(=O)Cn2cnc3cc(F)ccc3c2=O)cc1 [Compound 7, 2-(7-Fluoro-4-oxo-4H-quinazolin-3-yl)-N-[4-(isopropyl-methyl-sulfamoyl)-phenyl]-acetamide] | – | – | – | – | 1 to 10 µM | 4.6 µM | > 50 µM | – | – | – | – | – | > 50 µM | – | – | – | –
CCN(CC)S(=O)(=O)c1ccc(C)c(NC(=O)Cn2cnc3cc([N+](=O)[O-])ccc3c2=O)c1 [Compound 12, N-(5-Diethylsulfamoyl-2-methyl-phenyl)-2-(7-nitro-4-oxo-4H-quinazolin-3-yl)-acetamide] | 2.9 µM | > 25 µM | 5.2 µM | 14.6 µM | – | 11.1 µM | > 25 µM | > 50 µM | > 25 µM | > 25 µM | > 25 µM | – | – | 1 to 10 µM | – | – | –
NC(=O)c1ncn([C@@H]2O[C@H](CO)[C@@H](O)[C@H]2O)n1 [ribavirin] | – | – | – | – | – | – | – | – | – | – | – | – | – | – | did not show protection | induced anemia and thrombocytosis | did not show protection
CCCC(=O)Nc1cc(S(=O)(=O)N(CC)CC)ccc1OC [Compound 14, N-(5-Diethylsulfamoyl-2-methoxy-phenyl)-butyramide] | 4.2 µM | 14.9 µM | 4.8 µM | 11.1 µM | 1 to 10 µM | 3.6 µM | 27.5 µM | – | > 25 µM | > 25 µM | > 25 µM | – | > 50 µM | – | – | – | –
CCN(CC)S(=O)(=O)c1ccc(OC)c(NC(=O)C(C)C)c1 [Compound 2, N-(5-Diethylsulfamoyl-2-methoxy-phenyl)-isobutyramide] | 5.5 µM | 13.3 µM | 2.1 µM | 12.5 µM | < 1 µM | 0.3 µM | 4.1 µM | > 50 µM | 7.6 µM | 8.9 µM | 6.2 µM | 0.7 µM | – | – | – | – | –
CCN(CC)S(=O)(=O)c1ccc(OC)c(NC(=O)Cc2ccccc2)c1 [Compound 16, N-(5-Diethylsulfamoyl-2-methoxy-phenyl)-2-phenyl-acetamide] | – | – | 2.1 µM | 6.4 µM | 1 to 10 µM | 5.8 µM | 10.3 µM | > 50 µM | – | – | 3.6 µM | – | – | – | – | – | –
CCN(CC)S(=O)(=O)c1ccc(NC(=O)CN2C(=O)c3cccc4cccc(c34)C2=O)cc1 [Compound 9, N-(4-Diethylsulfamoyl-phenyl)-2-(1,3-dioxo-1H,3H-benzo[de]isoquinolin-2-yl)-acetamide] | – | – | – | – | 1 to 10 µM | 1.3 µM | 7.3 µM | – | – | – | – | – | > 50 µM | – | – | – | –
CCN(CC)S(=O)(=O)c1ccc(NC(=O)Cn2cnc3c2c(=O)n(C)c(=O)n3C)cc1 [Compound 4, N-(4-Diethylsulfamoyl-phenyl)-2-(1,3-dimethyl-2,6-dioxo-1,2,3,6-tetrahydro-purin-7-yl)-acetamide] | 13.5 µM | 22.6 µM | 4.3 µM | 22.7 µM | 1 to 10 µM | 7.8 µM | 8.9 µM | – | – | – | > 25 µM | – | > 50 µM | – | – | – | –
CCN(CC)S(=O)(=O)c1ccc(NC(=O)Cn2cnc3ccccc3c2=O)cc1 [Compound 1, N-(4-Diethylsulfamoyl-phenyl)-2-(4-oxo-4H-quinazolin-3-yl)-acetamide] | 1 µM | 8.2 µM | 1.7 µM | 4.1 µM | < 1 µM | 0.3 µM | 5.2 µM | > 50 µM | 4.3 µM | 10.7 µM | 1.2 µM | 0.3 µM | – | – | – | – | –
CCCCC(=O)Nc1cc(S(=O)(=O)N(CC)CC)ccc1OC [Compound 21, Pentanoic acid (5-diethylsulfamoyl-2-methoxy-phenyl)-amide] | – | – | 8.2 µM | 12 µM | 10 to 25 µM | 14.2 µM | 24.1 µM | > 50 µM | – | – | 6 µM | – | – | – | – | – | –
CC(C)N(C)S(=O)(=O)c1ccc(NC(=O)Cn2cnc3ccc(Cl)cc3c2=O)cc1 [Compound 6, 2-(6-Chloro-4-oxo-4H-quinazolin-3-yl)-N-[4-(isopropyl-methyl-sulfamoyl)-phenyl]-acetamide] | – | – | – | – | 1 to 10 µM | 1.8 µM | 43.2 µM | – | – | – | – | – | 64 µM | – | – | – | –
CCN(CC)S(=O)(=O)c1ccc(NC(=O)Cn2[nH]c(=O)c3ccccc3c2=O)cc1 [Compound 8, N-(4-Diethylsulfamoyl-phenyl)-2-(1,4-dioxo-3,4-dihydro-1H-phthalazin-2-yl)-acetamide] | – | – | – | – | 1 to 10 µM | 2.8 µM | 25.6 µM | – | – | – | – | – | > 50 µM | – | – | – | –
CCN(CC)S(=O)(=O)c1ccc(OC)c(NC(=O)CC(C)C)c1 [Compound 15, N-(5-Diethylsulfamoyl-2-methoxy-phenyl)-3-methyl-butyramide] | – | – | 1.2 µM | 37.2 µM | 1 to 10 µM | 2.4 µM | > 100 µM | > 50 µM | – | – | 10.1 µM | – | – | – | – | – | –
Cc1ccc(S(=O)(=O)Nc2ccc3ncn(Cc4ccccc4)c(=O)c3c2)cc1 [Compound 99, N-(3-Benzyl-4-oxo-3,4-dihydro-quinazolin-6-yl)-4-methyl-benzenesulfonamide] | – | – | – | – | > 25 µM | – | – | – | – | – | – | – | – | – | – | – | –
CC1CCCC(C)N1S(=O)(=O)c1ccc(NC(=O)Cn2cnc3sccc3c2=O)cc1 (stereo not drawn) [Compound 28, N-[4-(2,6-Dimethyl-piperidine-1-sulfonyl)-phenyl]-2-(4-oxo-4H-thieno[2,3-d]pyrimidin-3-yl)-acetamide] | – | – | – | – | 10 to 25 µM | – | – | – | – | – | – | – | – | – | – | – | –
CCOc1ccc(S(=O)(=O)N(CC)CC)cc1NC(=O)Cn1cnc2ccccc2c1=O [Compound 92, N-(5-Diethylsulfamoyl-2-ethoxy-phenyl)-2-(4-oxo-4H-quinazolin-3-yl)-acetamide] | – | – | – | – | > 25 µM | – | – | – | – | – | – | – | – | – | – | – | –
CN(C)S(=O)(=O)c1ccc(NC(=O)Cn2cnc3ccccc3c2=O)cc1 [Compound 50, N-(4-Dimethylsulfamoyl-phenyl)-2-(4-oxo-4H-quinazolin-3-yl)-acetamide] | – | – | – | – | > 25 µM | – | – | – | – | – | – | – | – | – | – | – | –
NS(=O)(=O)c1ccc(NC(=O)COC(=O)Cn2cnc3ccccc3c2=O)cc1 [Compound 111, (4-Oxo-4H-quinazolin-3-yl)-acetic acid (4-sulfamoyl-phenylcarbamoyl)-methyl ester] | – | – | – | – | > 25 µM | – | – | – | – | – | – | – | – | – | – | – | –
